Assay results reported in patent US4695545A, “Culture and process for producing A41030 antibiotics” (Eli Lilly and Company, priority 1984, dated 1987).

Legend:
Clostridium septicum = test: MIC anaerobic bacteria, agar-dilution; assay type: cell-based; conditions: Clostridium septicum 1128
Streptococcus pyogenes = test: MIC aerobic bacteria, standard agar-dilution assay; assay type: cell-based; conditions: Streptococcus pyogenes C203, 24 hours
Bacteroides vulgatis = test: MIC anaerobic bacteria, agar-dilution; assay type: cell-based; conditions: Bacteroides vulgatis 1211
Peptococcus prevoti = test: MIC anaerobic bacteria, agar-dilution; assay type: cell-based; conditions: Peptococcus prevoti 1281
[1] = test system: Bacteroides thetaiotaomicron; test: MIC anaerobic bacteria, agar-dilution; assay type: cell-based; conditions: Bacteroides thetaiotaomicron 1438
Staphylococcus aureus = test: MIC aerobic bacteria, standard agar-dilution assay; assay type: cell-based; conditions: Staphylococcus aureus S13E; agar-dilution, 24 hours
Clostridium perfringens = assay type: cell-based; conditions: Clostridium perfringens 81; agar-dilution
Bacteroides fragilis = test: MIC anaerobic bacteria, agar-dilution; assay type: cell-based
Bacteroides corrodens = test: MIC anaerobic bacteria, agar-dilution; assay type: cell-based; conditions: Bacteroides corrodens 1874
Propionibacterium acnes = test: MIC anaerobic bacteria, agar-dilution; assay type: cell-based; conditions: Propionibacterium acnes 79; agar-dilution (Table 9)
Solubility in solvents = assay type: physicochemical; conditions: qualitative
Text: As many as seven antibiotic factors are recovered from the fermentation and are obtained as a mixture, the A41030 complex. It will be recognized that the ratio of the factors in the A41030 complex will vary, depending upon the fermentation conditions used. The individual factors A, B, C, D, E, F, and G are separated and isolated as individual compounds, as hereinafter described.

[2] = test system: Bacteroides melaninogenicus; test: MIC anaerobic bacteria, agar-dilution; assay type: cell-based
[3] = test system: Peptostreptococcus anaerobius; test: MIC anaerobic bacteria, agar-dilution; assay type: cell-based; conditions: Peptostreptococcus anaerobius 1428
Fusobacterium symbiosum = test: MIC anaerobic bacteria, agar-dilution; assay type: cell-based; conditions: Fusobacterium symbiosum 1470
[4] = test system: Peptostreptococcus intermedius; test: MIC anaerobic bacteria, agar-dilution; assay type: cell-based; conditions: Peptostreptococcus intermedius 1264
Escherichia coli = test: MIC aerobic bacteria, standard agar-dilution assay; assay type: cell-based; conditions: Escherichia coli TEM, 24 hours
[5] = Electrometric titration (pKa); assay type: physicochemical; conditions: electrometric titration in 66% dimethylformamide in water; stated as possible
Text: Antibiotic A41030 factor A is a white, crystalline solid.

Streptococcus pneumoniae = test: MIC aerobic bacteria, standard agar-dilution assay; assay type: cell-based; conditions: Streptococcus pneumoniae Park I, 24 hours
[6] = test system: Streptococcus sp. Group D; test: MIC aerobic bacteria, standard agar-dilution assay; assay type: cell-based
[7] = test system: Staphylococcus epidermidis; test: MIC aerobic bacteria, standard agar-dilution assay; assay type: cell-based
Clostridium difficile [8] = test: MIC against Clostridium difficile strains, agar-dilution; assay type: cell-based
Text: The A41030 antibiotic factors A, B, C, D, E, F, and G, are also active against a number of strains of Clostridium difficile, as determined by the agardilution method.

Haemophilus influenzae = test: MIC aerobic bacteria, standard agar-dilution assay; assay type: cell-based
Clostridium difficile [9] = test: MIC anaerobic bacteria, agar-dilution; assay type: cell-based; conditions: Clostridium difficile 2994; agar-dilution (Table 9)
Eubacterium aerofaciens = test: MIC anaerobic bacteria, agar-dilution; assay type: cell-based; conditions: Eubacterium aerofaciens 1235
[10] = test system: Fusobacterium necrophorum; test: MIC anaerobic bacteria, agar-dilution; assay type: cell-based; conditions: Fusobacterium necrophorum 6054A
[11] = test system: Peptococcus asaccharolyticus; test: MIC anaerobic bacteria, agar-dilution; assay type: cell-based; conditions: Peptococcus asaccharolyticus 1302
[12] = Bacteroides melaninogenicus 2736
[13] = Streptococcus sp. Group D 9960, 24 hours
[14] = Streptococcus sp. Group D X66, 24 hours
[15] = Staphylococcus epidermidis EPI1, 24 hours
[16] = Haemophilus influenzae 76, 24 hours
[17] = Haemophilus influenzae C.L., 24 hours

Substance: A41030 factor D
- MIC (Clostridium septicum): 0.25 µg/mL
- MIC (Streptococcus pyogenes): 0.5 µg/mL
- MIC (Bacteroides vulgatis): 32 µg/mL
- MIC (Peptococcus prevoti): 0.25 µg/mL
- MIC [1]: 32 µg/mL
- MIC (Staphylococcus aureus): 0.25 µg/mL
- MIC (Clostridium perfringens): 0.5 µg/mL
- MIC (Bacteroides fragilis; Bacteroides fragilis 111): 32 µg/mL
- MIC (Bacteroides fragilis; Bacteroides fragilis 1877): 32 µg/mL
- MIC (Bacteroides fragilis; Bacteroides fragilis 1936B): 32 µg/mL
- MIC (Bacteroides corrodens): 32 µg/mL
- MIC (Propionibacterium acnes): 0.25 µg/mL
- solubility (solvents) (Solubility in solvents): soluble in the same solvents as factor A
- MIC ([2]; Bacteroides melaninogenicus 1856/28): > 64 µg/mL
- MIC [2, 12]: 0.5 µg/mL
- MIC [3]: 0.5 µg/mL
- MIC (Fusobacterium symbiosum): 0.5 µg/mL
- MIC [4]: 1.0 µg/mL
- MIC (Escherichia coli): 64 µg/mL
- possibly additional pKa's [5]: > 10
- MIC (Streptococcus pneumoniae): 0.5 µg/mL
- MIC [6, 13]: 1 µg/mL
- MIC [6, 14]: 1 µg/mL
- MIC [7, 15]: 0.25 µg/mL
- MIC ([7]; Staphylococcus epidermidis EPI2, 24 hours): 1 µg/mL
- MIC (Clostridium difficile [8]; Clostridium difficile 78): ≤ 0.25 µg/mL
- MIC (Clostridium difficile [8]; Clostridium difficile 107B): ≤ 0.25 µg/mL
- MIC (Clostridium difficile [8]; Clostridium difficile 111F): ≤ 0.25 µg/mL
- MIC (Clostridium difficile [8]; Clostridium difficile 1153): 1.0 µg/mL
- MIC (Clostridium difficile [8]; Clostridium difficile 2634): 0.5 µg/mL
- MIC (Clostridium difficile [8]; Clostridium difficile 3424-5B): 0.5 µg/mL
- MIC (Clostridium difficile [8]; Clostridium difficile 3816): 0.5 µg/mL
- MIC (Clostridium difficile [8]; Clostridium difficile 3950D): 0.5 µg/mL
- MIC (Clostridium difficile [8]; Clostridium difficile 6890): 0.5 µg/mL
- MIC (Clostridium difficile [8]; Clostridium difficile 8484): ≤ 0.25 µg/mL
- MIC (Clostridium difficile [8]; Clostridium difficile A-194): ≤ 0.25 µg/mL
- MIC (Clostridium difficile [8]; Clostridium difficile A-195): ≤ 0.25 µg/mL
- MIC (Clostridium difficile [8]; Clostridium difficile A-196): 0.5 µg/mL
- MIC (Clostridium difficile [8]; Clostridium difficile A-279): ≤ 0.25 µg/mL
- MIC (Clostridium difficile [8]; Clostridium difficile A-280): ≤ 0.25 µg/mL
- MIC (Clostridium difficile [8]; Clostridium difficile A-281): 0.5 µg/mL
- MIC (Clostridium difficile [8]; Clostridium difficile WAL-2112): ≤ 0.25 µg/mL
- MIC (Clostridium difficile [8]; Clostridium difficile WAL-3657): ≤ 0.25 µg/mL
- MIC (Clostridium difficile [8]; Clostridium difficile WAL-4268): ≤ 0.25 µg/mL
- MIC (Haemophilus influenzae; [16]): 8 µg/mL
- MIC (Haemophilus influenzae; [17]): 8 µg/mL
- MIC (Clostridium difficile [9]): 0.5 µg/mL
- MIC (Eubacterium aerofaciens): 0.5 µg/mL

Substance: A41030 factor E
- MIC (Clostridium septicum): 0.5 µg/mL
- MIC (Streptococcus pyogenes): 0.25 µg/mL
- MIC [10]: 0.5 µg/mL
- MIC (Bacteroides vulgatis): 32 µg/mL
- MIC (Peptococcus prevoti): 32 µg/mL
- MIC [1]: 64 µg/mL
- MIC (Staphylococcus aureus): 0.25 µg/mL
- MIC (Clostridium perfringens): 1.0 µg/mL
- MIC (Bacteroides fragilis; Bacteroides fragilis 111): 64 µg/mL
- MIC (Bacteroides fragilis; Bacteroides fragilis 1877): 32 µg/mL
- MIC (Bacteroides fragilis; Bacteroides fragilis 1936B): 64 µg/mL
- MIC (Bacteroides corrodens): 64 µg/mL
- MIC (Propionibacterium acnes): 0.5 µg/mL
- solubility (solvents) (Solubility in solvents): soluble in the same solvents as factor A
- MIC [2, 12]: 32 µg/mL
- MIC [3]: 32 µg/mL
- MIC (Fusobacterium symbiosum): 1.0 µg/mL
- MIC [4]: 32 µg/mL
- possibly additional pKa's [5]: > 10
- MIC (Streptococcus pneumoniae): 0.25 µg/mL
- MIC [6, 13]: 1 µg/mL
- MIC [6, 14]: 1 µg/mL
- MIC [11]: ≤ 0.25 µg/mL
- MIC [7, 15]: 0.25 µg/mL
- MIC (Clostridium difficile [8]; Clostridium difficile 78): 0.5 µg/mL
- MIC (Clostridium difficile [8]; Clostridium difficile 107B): 0.5 µg/mL
- MIC (Clostridium difficile [8]; Clostridium difficile 111F): 0.5 µg/mL
- MIC (Clostridium difficile [8]; Clostridium difficile 1153): 1.0 µg/mL
- MIC (Clostridium difficile [8]; Clostridium difficile 2634): 1.0 µg/mL
- MIC (Clostridium difficile [8]; Clostridium difficile 3424-5B): 0.5 µg/mL
- MIC (Clostridium difficile [8]; Clostridium difficile 3816): 0.5 µg/mL
- MIC (Clostridium difficile [8]; Clostridium difficile 3950D): 0.5 µg/mL
- MIC (Clostridium difficile [8]; Clostridium difficile 6890): 0.5 µg/mL
- MIC (Clostridium difficile [8]; Clostridium difficile 8484): 0.5 µg/mL
- MIC (Clostridium difficile [8]; Clostridium difficile A-194): 0.5 µg/mL
- MIC (Clostridium difficile [8]; Clostridium difficile A-195): 0.5 µg/mL
- MIC (Clostridium difficile [8]; Clostridium difficile A-196): 1.0 µg/mL
- MIC (Clostridium difficile [8]; Clostridium difficile A-279): 0.5 µg/mL
- MIC (Clostridium difficile [8]; Clostridium difficile A-280): 0.5 µg/mL
- MIC (Clostridium difficile [8]; Clostridium difficile A-281): 1.0 µg/mL
- MIC (Clostridium difficile [8]; Clostridium difficile WAL-2112): 0.5 µg/mL
- MIC (Clostridium difficile [8]; Clostridium difficile WAL-3657): 0.5 µg/mL
- MIC (Clostridium difficile [8]; Clostridium difficile WAL-4268): 0.5 µg/mL
- MIC (Haemophilus influenzae; [16]): 8 µg/mL
- MIC (Haemophilus influenzae; [17]): 8 µg/mL
- MIC (Clostridium difficile [9]): 0.5 µg/mL
- MIC (Eubacterium aerofaciens): 0.5 µg/mL
